Data published in US11098056B2, “UDP glycosyltransferase inhibitors and methods of use” (GENZYME CORPORATION, priority 2018, dated 2021).

The compounds below were run against T1, UGT8 (Homo sapiens, UniProt Q16880) (assay: In vitro sulfatide (SFT) synthesis inhibition in OE19 cells, LC-MS/MS readout). Conditions: 72 hr, sulfatide by LC-MS/MS, read-out: Potency range (IC50, In-vitro SFT).
T1 construct: host or cells: OE19 cells
T1 sequence (Q16880 21-541): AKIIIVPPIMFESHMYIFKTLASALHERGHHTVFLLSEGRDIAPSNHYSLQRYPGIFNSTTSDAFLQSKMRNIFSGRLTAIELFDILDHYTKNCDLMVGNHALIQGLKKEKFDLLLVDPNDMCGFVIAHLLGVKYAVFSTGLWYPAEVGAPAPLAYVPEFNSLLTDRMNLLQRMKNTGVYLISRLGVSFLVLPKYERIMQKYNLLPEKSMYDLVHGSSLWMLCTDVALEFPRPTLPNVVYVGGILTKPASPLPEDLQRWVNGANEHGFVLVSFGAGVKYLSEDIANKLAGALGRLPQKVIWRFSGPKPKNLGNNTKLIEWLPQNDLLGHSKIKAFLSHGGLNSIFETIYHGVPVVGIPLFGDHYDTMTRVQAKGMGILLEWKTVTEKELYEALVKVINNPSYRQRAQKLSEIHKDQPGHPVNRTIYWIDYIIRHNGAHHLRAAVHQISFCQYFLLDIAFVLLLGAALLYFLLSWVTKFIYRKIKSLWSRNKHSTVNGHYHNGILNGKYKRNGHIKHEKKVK
Type: cell-based
Procedure: For medium throughput screening, library compounds were dispensed into CellBIND 384 well plates to a final concentration of 10 μM. OE19 cells (Sigma) were grown in to 70-90% confluency in RPMI 1640+L-glutamine and […]; were trypsinized to achieve suspension and were aliquoted at 2,500 cells/well, total well volume 50 μl. Plates were incubated 72 hr at 37° C. in 5% CO2; supernatant was removed and plates were dried, heat-sealed and stored at −20° C. until analysis.
For IC50 determinations, the same procedure was followed except that test compounds were added to the plate as dose-downs in triplicate to yield concentration response curves.
Mass Spectrometer Analysis of Sulfatide (SFT):
Assay plates were thawed and 85 μl mobile phase B (5 mM ammonium formate^+0.2% formic acid in 50:50 methanol:acetonitrile). Fifteen μl 20 ng/ml C17 SFT in mobile phase B was added as an internal standard.
SFT was analyzed using an Applied Biosystems API-4000 triple quad mass spectrometer interfaced to a Thermo Scientific Multiplex system (LX-4) equipped with four pumps. Chromatography of OE19 cell samples or 2B5-mouse cells treated with compounds was performed using a Waters Acquity UPLC BEH C8 2.1×50 mm column with 1.7 um particle size. The chromatography was performed using the following mobile phases. Mobile phase A (MPA): 0.2% formic acid and 5 mM ammonium formate in deionized water; MPB: see above. The LC method was run in isocratic mode for 4 sequentially running columns using 95% MPB and 5% MPA with flow rate of 1 ml/min and a column temperature of 60° C.
The Triple quad mass spectrometer was run in Negative Ionization mode monitoring the following MRM transitions and using the following parameters:
Electrospray voltage was […], and source temperature was 550° C.

IC50 [nM] | Compound
100 to 1000 | CNC(=O)c1csc2c(C(F)(F)F)cc(N3CCN(CC(C)OCC4CC4)CC3)nc12 (racemic) [Example 39, (+/−)-5-(4-(2-(Cyclopropylmethoxy)propyl)piperazin-1-yl)-N-methyl-7-(trifluoromethyl)thieno[3,2-b]pyridine-3-carboxamide]
100 to 1000 | CNC(=O)c1csc2c(C(F)(F)F)cc(O[C@@H]3CCN(C(=O)OC(C)(C)C)[C@@H](C)C3)nc12 (racemic) [Example 368, (+/−)-tert-Butyl trans-2-methyl-4-((3-(methylcarbamoyl)-7-(trifluoromethyl)thieno[3,2-b]pyridin-5-yl)oxy)piperidine-1-carboxylate]
< 100 | CNC(=O)c1csc2c(C(F)(F)F)cc(O[C@@H]3CCN(C(=O)OCCOC(F)(F)F)[C@@H](C)C3)nc12 (racemic) [Example 369, (+/−)-trans-2-(Trifluoromethoxy)ethyl-2-methyl-4-((3-(methylcarbamoyl)-7-(trifluoromethyl)thieno[3,2-b]pyridin-5-yl)oxy)piperidine-1-carboxylate]
< 100 | CNC(=O)c1csc2c(C(F)(F)F)cc(O[C@@H]3CCN(C(=O)OC(C)(C)C)[C@H](C)C3)nc12 (racemic) [Example 370, (+/−)-tert-Butyl cis-2-methyl-4-((3-(methylcarbamoyl)-7-(trifluoromethyl)thieno[3,2-b]pyridin-5-yl)oxy)piperidine-1-carboxylate]
< 100 | CNC(=O)c1csc2c(C(F)(F)F)cc(O[C@@H]3CCN(C(=O)OCCOC(F)(F)F)[C@H](C)C3)nc12 (racemic) [Example 371, (+/−)-cis-2-(Trifluoromethoxy)ethyl-2-methyl-4-((3-(methylcarbamoyl)-7-(trifluoromethyl)thieno[3,2-b]pyridin-5-yl)oxy)piperidine-1-carboxylate]
< 100 | CNC(=O)c1csc2c(C(F)(F)F)c(C)c(O[C@@H]3CCN(C(=O)OC(C)(C)C)C[C@@H]3F)nc12 (racemic) [Example 387, (+/−)-tert-Butyl cis-3-fluoro-4-((6-methyl-3-(methylcarbamoyl)-7-(trifluoromethyl)thieno[3,2-b]pyridin-5-yl)oxy)piperidine-1-carboxylate]
< 100 | CNC(=O)c1csc2c(C(F)(F)F)cc(N3CC[C@H](OC(=O)N[C@@H](C)COC(F)(F)F)[C@@H](F)C3)nc12 (racemic) [Example 418]
< 100 | CC(C)NC(=O)O[C@H]1CCN(c2cc(C(F)(F)F)c3scc(C(=O)N4CCC4)c3n2)C[C@@H]1F (racemic) [Example 441, (+/−)-trans-1-(3-(Azetidine-1-carbonyl)-7-(trifluoromethyl)thieno[3,2-b]pyridin-5-yl)-3-fluoropiperidin-4-yl isopropylcarbamate]
< 100 | CNC(=O)c1csc2c(C(F)(F)F)cc(N3CC[C@H](OC(=O)N(C(C)C)C(C)C)[C@@H](F)C3)nc12 (racemic) [Example 488, (+/−)-trans-3-Fluoro-1-(3-(methylcarbamoyl)-7-(trifluoromethyl)thieno[3,2-b]pyridin-5-yl)piperidin-4-yl diisopropylcarbamate]
< 100 | CNC(=O)c1csc2c(C(F)(F)F)cc(N3CC[C@H](OC(=O)NC(C)C)[C@@H](F)C3)nc12 (racemic) [Example 490, (+/−)-tran-3-Fluoro-1-(3-(methylcarbamoyl)-7-(trifluoromethyl)thieno[3,2-b]pyridin-5-yl)piperidin-4-yl isopropylcarbamate]
< 100 | CNC(=O)c1csc2c(C(F)(F)F)cc(N3CC[C@H](OC(=O)NC4CC4)[C@@H](F)C3)nc12 (racemic) [Example 492, (+/−)-trans-3-Fluoro-1-(3-(methylcarbamoyl)-7-(trifluoromethyl)thieno[3,2-b]pyridin-5-yl)piperidin-4-yl cyclopropylcarbamate]
< 100 | CNC(=O)c1csc2c(C(F)(F)F)cc(O[C@@H]3CN(C(=O)OC(C)(C)C)C[C@@H]3F)nc12 (racemic) [Example 609, tert-Butyl (+/−)-cis-3-fluoro-4-((3-(methylcarbamoyl)-7-(trifluoromethyl)thieno[3,2-b]pyridin-5-yl)oxy)pyrrolidine-1-carboxylate]
< 100 | CNC(=O)c1csc2c(C(F)(F)F)cc(O[C@H]3CN(C(=O)OCC4CC4)C[C@H]3F)nc12 (racemic) [Example 610, Cyclopropylmethyl (+/−)-cis-3-fluoro-4-((3-(methylcarbamoyl)-7-(trifluoromethyl)thieno[3,2-b]pyridin-5-yl)oxy)pyrrolidine-1-carboxylate]
< 100 | CNC(=O)c1csc2c(C(F)(F)F)cc(O[C@H]3CN(C(=O)OCCOC(F)(F)F)C[C@H]3F)nc12 (racemic) [Example 611, 2-(Trifluoromethoxy)ethyl (+/−)-cis-3-fluoro-4-((3-(methylcarbamoyl)-7-(trifluoromethyl)thieno[3,2-b]pyridin-5-yl)oxy)pyrrolidine-1-carboxylate]
100 to 1000 | CNC(=O)c1csc2c(C(F)(F)F)cc(OC3CC4COCC(C3)N4C(=O)OC(C)(C)C)nc12 (racemic) [Example 628, tert-Butyl (+/−)-endo7-((3-(methylcarbamoyl)-7-(trifluoromethyl)thieno[3,2-b]pyridin-5-yl)oxy)-3-oxa-9-azabicyclo[3.3.1]nonane-9-carboxylate]
< 100 | CNC(=O)c1csc2c(C(F)(F)F)cc(OC3CC4COCC(C3)N4C(=O)OCCOC(F)(F)F)nc12 (racemic) [Example 629, 2-(Trifluoromethoxy)ethyl (+/−)-endo7-((3-(methylcarbamoyl)-7-(trifluoromethyl)thieno[3,2-b]pyridin-5-yl)oxy)-3-oxa-9-azabicyclo[3.3.]nonane-9-carboxylate]
< 100 | CNC(=O)c1csc2c(C(F)(F)F)cc(N3CCC(OC(=O)NC(C)CF)CC3)nc12 (racemic) [Example 671, [1-[3-(Methylcarbamoyl)-7-(trifluoromethyl)thieno[3,2-b]pyridin-5-yl]-4-piperidyl] N-(2-fluoro-1-methyl-ethyl)carbamate]
< 100 | CNC(=O)c1csc2c(C(F)(F)F)cc(O[C@H]3C[C@@H](OC(=O)N[C@@H](C)COC(F)(F)F)C3)nc12 (racemic) [Example 833, (+/−)-cis-(1S,3R)-3-((3-(Methylcarbamoyl)-7-(trifluoromethyl)thieno[3,2-b]pyridin-5-yl)oxy)cyclobutyl ((S)-1-(trifluoromethoxy)propan-2-yl)carbamate]
< 100 | COC(=O)c1csc2c(C(F)(F)F)cc(N3CCN(CC(=O)NC(C)C)CC3)nc12 [Example 10, Methyl 5-(4-(2-(isopropylamino)-2-oxoethyl)piperazin-1-yl)-7-(trifluoromethyl)thieno[3,2-b]pyridine-3-carboxylate]
100 to 1000 | CCNC(=O)CN1CCN(c2cc(C(F)(F)F)c3scc(C(=O)NC)c3n2)CC1 [Example 25, 5-(4-(2-(Ethylamino)-2-oxoethyl)piperazin-1-yl)-N-methyl-7-(trifluoromethyl)thieno[3,2-b]pyridine-3-carboxamide]
100 to 1000 | CNC(=O)c1csc2c(C(F)(F)F)cc(N3CCN(C(=O)COC(C)C)CC3)nc12 [Example 44, 5-(4-(2-Isopropoxyacetyl)piperazin-1-yl)-N-methyl-7-(trifluoromethyl)thieno[3,2-b]pyridine-3-carboxamide]
100 to 1000 | CNC(=O)c1csc2c(C(F)(F)F)c(C)c(N3CCN(CC(=O)NC(C)C)CC3)nc12 [Example 47, 5-(4-(2-(Isopropylamino)-2-oxoethyl)piperazin-1-yl)-N,6-dimethyl-7-(trifluoromethyl)thieno[3,2-b]pyridine-3-carboxamide]
100 to 1000 | CNC(=O)c1csc2c(C)cc(N3CCN(CC(=O)NC(C)C)CC3)nc12 [Example 48, 5-(4-(2-(Isopropylamino)-2-oxoethyl)piperazin-1-yl)-N,7-dimethylthieno[3,2-b]pyridine-3-carboxamide]
< 100 | CNC(=O)c1csc2c(C(F)(F)F)cc(N3CCN(CC(=O)NC(C)C)C(C)(C)C3)nc12 [Example 49, 5-(4-(2-(Isopropylamino)-2-oxoethyl)-3,3-dimethylpiperazin-1-yl)-N-methyl-7-(trifluoromethyl)thieno[3,2-b]pyridine-3-carboxamide]
